Laboratory results taken from US20010018416A1, “COMPOSITIONS AND METHODS FOR TREATING HEPATITIS-C” (priority 1997, published 2001).

What was measured:
[1] = tested on: A 549 cells (human small cell lung carcinoma); assay: DNA fragmentation test (LDH released by dying cells measured by optic density) after TNF-α; format: cell-based; details: A549; TNF-α 10 nanograms/ml; GMDP 1 and 2 μg/ml; 8 hours
Description: The LDH analysis procedure is described above. A 549 cells (human small cell lung carcinoma) were utilized for the DNA fragmentation test and treated with GMDP 1 ug/ml and with GMDP 2 ug/ml for 2 hours and then treated with human TNF-α (Sigma Corp., St. Louis, Mo.). FIGS. 8 and 9 are plots of the optical density measurements of two different scans each with six samples utilizing the DNA fragmentation procedure. […] TNF-α levels were 10 nanograms/ml for all samples, while samples 1-4 contained no GMDP, sample 5 contained 1 μg/ml GMDP and sample 6 contained 2 μg/ml GMDP. Sample 1 was analyzed after 0 hours, sample 2 analyzed after 2 hours, sample 3 analyzed after 4 hours, while samples 4, 5, and 6 were analyzed after 8 hours. Accordingly, only samples 5 and 6 from each scan measure cell protection after 8 hours. […] In other words, the higher purity GMDP drastically increases cell protection and antiapoptotic activity.

hepatitis-C = tested on: hepatitis-C
Description: Twelve patients in the active stage of hepatitis-C were selected for this study. The study group consisted of eight females and four males between 36 and 57 years of age. […] The control powder contained vegetable oil, corn syrup solids, and lactose. Quality control (to check for product identity and purity) was done by HPLC through comparisons with those obtained from reference samples from Sigma Corp, St Louis, Mo. The GMDP powder was diluted with 10 ml sterile distilled water. The daily GMDP dosage ranged from 0.1-0.5 mg/kg of the patient's body weight for blastolysine 80-120 mg/kg of body weight. Statistical analysis were done with Epi-Info Statistical Package (Center for Disease Control and Prevention, Atlanta, Ga.) with two way comparison by the Fischer's exact test (two tailed). Eleven patients were orally administered GMDP at dosage of […] daily in a water solution for one or two months. One patient with 44000×1000 viral load and early liver cirrhosis was treated for one year. GMDP at dosage of 0.1-0.5 mg/kg daily was administered to 11 patients.

[2] = tested on: human CD4+ lymphocytes taken from AIDS patient; assay: LDH assay of the inhibition of Fas antigen mediated apoptosis in vitro; format: cell-based; details: LDH release 16 h after anti-Fas antibodies, FIG. 3
Description: The following cell lines were used for this assay: A549 (human lung carcinoma cells), A431 (human […]), L929 (mouse […]), human CD4+ lymphocytes taken from AIDS patient. All cells are commercially available from ATCC. They were maintained in DME medium supplemented with 10% FCS and glutamine in CO2 incubator. Lactate dehydrogenase (LDH) assay Cells were seeded into 35 mm Petri dishes and grown up to 70% confluency. Then they were treated with human recombinant antibodies against Fas antigen (gift from […] Co.) in the concentration indicated in the figures. In cases where the cells were not spontaneously sensitive to Fas ligand induced cytolysis, cycloheximide (CHX), a powerful blocker of the protein synthesis, which sensitizes the cells to anti Fas antibodies action, was used in concentration of 25 μg/ml. Sixteen hours after treatment, 20 μl samples of the cultured supernatants were removed and assayed for LDH release by the Cytotox 96 assay (Promega Biotech., Madison, Wis.)in accordance with the manufacturer's instructions. This methodology is based upon the fact that when cells are dying they are releasing LDH. […] These samples were assayed in triplicate on an EL340 Microplate reader (Bic) Tech Instruments Inc.) at 490 nm wave length. The average of these three readings was plated on the graphs (FIGS. 1, 2, 3 and 4).

| Structure (SMILES) | optical density relative to cells exposed to GMDP of about 97.3% purity [1] | reduction in bilirubin concentration (hepatitis-C; 2 patients with elevated level) | decrease of LDH and GGTP activity (hepatitis-C; 7 patients who had elevated level) | effect on AST and APT activity (hepatitis-C; 7 patients who had elevated level of these enzymes) | fatigue and nausea (hepatitis-C; after first week, all patients who had these symptoms) | serum HPC RNA test, reduction of viral load (hepatitis-C; after the first three weeks of treatment, all patients) | overall clinical conditions (hepatitis-C; all patients treated, follow up period) | toxic effects (hepatitis-C; human, in vivo, po) | free iron test (hepatitis-C; one patient with high levels of free iron) | effect on alkaline phosphates activity (hepatitis-C; one patient with previously elevated level) | follow-up liver biopsy, pathology examination (hepatitis-C; one patient, end of one year treatment) | follow-up liver biopsy (hepatitis-C; two patients with diagnosed mild necrosis and fibrosis) | maximum inhibition of Fas Ag antibodies mediated cell lysis (reduction) [2] [%] |
| --- | --- | --- | --- | --- | --- | --- | --- | --- | --- | --- | --- | --- | --- |
| CC(=O)NC1C(OC2C(CO)OC(O)C(NC(C)=O)C2OC(C)C(=O)NC(C)C(=O)NC(CCC(=O)O)C(N)=O)OC(CO)C(O)C1O [GMDP of about 98.3% purity, N-acetyl-D-glucosaminyl-(β1-4)-N-acetylmuramyl-L-alanyl-D-isoglutamine] | less than ½ |  |  |  |  |  |  |  |  |  |  |  |  |
| CC(=O)NC1C(OC2C(CO)OC(O)C(NC(C)=O)C2OC(C)C(=O)NC(C)C(=O)NC(CCC(=O)O)C(N)=O)OC(CO)C(O)C1O [GMDP, N-acetyl-D-glucosaminyl-(β1-4)-N-acetylmuramyl-L-alanyl-D-isoglutamine] |  | 19%(3) | 34% (6) | beneficial effect | completely subsided | two-three fold reduction | improved | No patients experienced toxic effects | full normalization | Lowering effect | no sign of previous necrosis and cirrhosis | no necrosis or fibrotic change was detectable | 72 |
